{
  "source": "patent US10253002B2",
  "about": "“Compounds and methods of treating infections” (Neoculi Pty Ltd., priority 2013, dated 2019)",
  "key": {"S. aureus ATCC 29213 [1]": {"tested_on": "S. aureus ATCC 29213", "experiment": "MIC testing (CLSI M07-A8, MHB II), Example 2", "assay_type": "cell-based", "conditions": "ATCC29213, Staphylococcus aureus ATCC 29213", "text": "The medium employed for the MIC assay was Mueller Hinton II Broth (MHB II-Becton Dickinson, Sparks, Md.; Cat No 212322; Lot 9044411). S. aureus ATCC 29213 served as the quality control strain, and linezolid was utilized as the quality control antibiotic to validate the assay."}, "S. aureus ATCC 29213 [2]": {"tested_on": "S. aureus ATCC 29213", "conditions": "Staphylococcus aureus ATCC 29213; CLSI-established; cited from earlier work"}, "[3]": {"tested_on": "protein synthesis in S. aureus ATCC 29213", "experiment": "Macromolecular synthesis assay: protein synthesis ([3H] leucine)", "assay_type": "cell-based, Staphylococcus aureus", "conditions": "8 fold the MIC (2 μg/mL)", "protocol": "Cells were grown at 35° C. overnight on Trypticase Soy agar. A colony from the plate was used to inoculate 10 ml of Mueller Hinton broth II (MHBII), and the culture was grown to early exponential growth phase (OD600==0.2 to 0.3) while incubating in a shaker at 35° C. and 200 rpm.\nWhen cells reached early exponential phase, 100 μL of culture was added to triplicate wells containing various concentrations of test compound or control antibiotics (5 μL) at 20× the final concentration in 100% DMSO. A 5% DMSO treated culture served as the “no drug” control for all experiments. Cells were added in MHBII at 105% to account for the volume of drug added to each reaction or in M9 minimal medium for protein synthesis reactions. Following 15 min incubation at room temperature, either [^3H] thymidine (DNA synthesis), [^3H] uridine (RNA synthesis) or [^3H] leucine (protein synthesis) was added at 0.5-1.0 μCi per reaction, depending on the experiment. Reactions were allowed to proceed at room temperature for 15-30 min and then stopped by adding 12 μL of cold 5% trichloroacetic acid (TCA) or 5% TCA/2% casamino acids (protein synthesis only). […] After washing three times with 5 ml of cold 5% TCA, the filters were rinsed two times with 5 mL 100% ethanol, allowed to dry, and then counted using a Beckman LS3801 liquid scintillation counter."}, "[4]": {"experiment": "Bioassay ranking of the analogues tested", "conditions": "M + R (MRSA and VRE combined)"}, "VRE": {"tested_on": "VRE", "experiment": "Broth microdilution MIC, Example 7 (NCL812 and analogues)", "assay_type": "cell-based, Enterococcus spp.", "how_it_was_run": "(§1)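 Isolates were tested in duplicate, with a third run if replicates differed by more than one two-fold dilution; inoculum purity was checked on sheep blood agar.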"}, "MRSA [5]": {"tested_on": "MRSA", "experiment": "Broth microdilution MIC, Example 7 (NCL812 and analogues)", "assay_type": "cell-based, Staphylococcus aureus", "how_it_was_run": "as §1"}, "[6]": {"experiment": "Release from Formulation B, Franz diffusion cells", "assay_type": "physicochemical", "conditions": "absolute ethanol receptor, 32±1° C., up to 24 hours", "protocol": "Franz diffusion cells were utilized to quantify the release rate of NCL 812 and NCL099 from its topical formulations. Five milliliters of absolute ethanol, which was chosen as the desired release medium, was loaded into the receptor chamber. Temperature of the receptor fluid was kept constant, at 32±1° C. using a water jacket. Acetyl cellulose membranes, with pore size of 0.45 μm (Pall Corporation) was selected and placed between donor and receptor chamber. Followed by that, a number of test samples (Formulation B) was loaded into the donor chamber. One milliliter of receptor fluid was collected at regular time intervals of 0.25, 0.50, 0.75, 1, 2, 3, 4, 5, 6, 7, 8 and 24 hours through the sampling port. One milliliter of fresh absolute ethanol was immediately returned to the receptor chamber. UV-HPLC was utilized to analyse the content of the receptor fluids attained."}, "Escherichia coli": {"tested_on": "Escherichia coli", "experiment": "Broth microdilution MIC, Example 7 (NCL812 and analogues)", "assay_type": "cell-based", "conditions": "E. coli; 24 hours; duplicate lines per compound"}, "Staphylococcus aureus": {"tested_on": "Staphylococcus aureus", "experiment": "Mouse skin wound infection model, topical treatment", "assay_type": "in vivo, mice", "conditions": "14 treatments", "description": "Preliminary studies prior to the conduct of the current study established a new method of skin infection arising from a detailed study of the models mentioned above. Briefly, study mice are anaesthetised, a patch of dorsal skin is clipped to reveal the skin and a circular area of skin is removed with a hand held punch, leaving a wound on the dorsum with a central cavity. The wound is infected with a known number of the challenge organism. Approximately four to six hours after infection, the wound is either treated topically with a vehicle formulation or an active formulation. The infected skin wound is retreated every 12 hours for a total of 14 treatments. Mice are humanely euthanased, the area of the original infected wound is dissected and removed and its bacterial content quantified by standard microbiologic tests. In this way, the change in bacterial concentration due to treatment with the active formulation can be readily determined by examining the reduction in bacterial burden compared with the vehicle control. Fresh cultures of bacteria (Staphylococcus aureus) were grown on Sheep Blood Agar at 37° C. for 16-18 hours. A few typical colonies were selected and suspended in 10 ml of Tryptic Soy Broth and incubated overnight in a shaking incubator (240 rpm) at 37° C. The overnight suspension was vortexed and diluted (1:100) in fresh Tryptic soy broth (100 μl [0.1 ml] in 9.9 ml broth). The fresh suspension was incubated for 3 hours in a shaking incubator (as above) in order to obtain mid-logarithmic phase bacteria. Bacteria were pelleted through centrifugation at 7,500 rpm for 10 mins. Broth supernatant was removed and bacteria suspended in 10 ml Phosphate Buffered Saline (PBS). These steps were repeated a further two times. The density of the suspension was checked by measuring absorbance at 600 nm, using a spectrophotometer with saline as a blank, to confirm the target density at a reading of approximately 0.100, consistent with a bacterial density of 2.5×10^7 CFU/ml. The suspension was placed into a rack placed into a lockable transport box with an ice brick to maintain refrigeration during transport, followed by storage in cool room upon arrival at the mouse skin infection laboratory. Final suspension was mixed thoroughly before inoculating the skin wounds created in mice. […] Eyes of each anaesthetised mouse were covered with veterinary eye lubricant in order to prevent corneal dehydration. Each mouse removed from induction chamber and placed onto surgical area, in front of individual aesthetic nose cone. While under anaesthesia each mouse was monitored for assessment of depth of anaesthesia (response to pain, blink reflex, skeletal muscle tone) and respiratory and cardiac function. Back skin hair was shaved from surgical area with mechanical clippers. […] Once the iodine solution was dry, a subcutaneous injection of the nonsteroidal anti-inflammatory agent meloxicam was administered. Dorsal skin was pinched gently to allow creation of a circular full-thickness wound using ear punch/biopsy punch. […] Once the bacterial suspension was dry, mice were placed into individual recovery boxes labelled with the mouse number. The time of inoculation was recorded. Initial body weights of each mouse were recorded on the appropriate score sheet. Mice recovered to full consciousness within 5 minutes. Recovered mice were returned to individual housing and monitored hourly for post-surgical or anaesthetic complications. […] Each ointment container was weighted prior to administration and the weight recorded. Each mouse was carefully restrained. […] The weight of the ointment container post-administration was recorded. […] At the end of the 7 day skin wound assessment period, all test mice were euthanased prior to wound collection for post mortem examination. The skin wound was dissected from the dorsum of each mouse. The sample was placed in a sample tube and weighed before 1 ml PBS and sterile tissue homogenisation beads were added. […]"}, "Pseudomonas aeruginosa": {"tested_on": "Pseudomonas aeruginosa", "experiment": "Broth microdilution MIC, Example 7 (NCL812 and analogues)", "assay_type": "cell-based", "conditions": "P. aeruginosa; 24 hours; duplicate lines per compound"}, "MRSA [7]": {"tested_on": "MRSA", "conditions": "within an hour of exposure to a concentration equivalent to the Cmax; McKay et al. (2009); cited from earlier work"}},
  "data": [
    {"smiles": "CC(=O)NC[C@H]1CN(c2ccc(N3CCOCC3)c(F)c2)C(=O)O1", "note": "[Linezolid]", "values": [
      {"measurement": "MIC", "setting": "S. aureus ATCC 29213 [1]", "result": 4, "unit": "µg/mL"},
      {"measurement": "Quality control range for linezolid (MIC)", "setting": "S. aureus ATCC 29213 [2]", "result": "1 to 4", "unit": "µg/mL"},
      {"measurement": "inhibition of protein synthesis", "setting": "[3]", "result": "approximately 61%"}
    ]},
    {"smiles": "CC(C)(C)c1ccc(C=NNC(=N)NN=Cc2ccc(C(C)(C)C)cc2)cc1.Cl", "note": "[NCL099]", "values": [
      {"measurement": "M + R", "setting": "[4]", "result": 7, "unit": "µg/mL"},
      {"measurement": "activity against VRE among analogues", "setting": "VRE; MIC testing, two VRE strains", "result": "greatest activity"},
      {"measurement": "MIC (μg/ml) at 24 hours, VRE 1", "setting": "VRE; VRE 1, 24 hours, duplicate lines per compound", "result": 8, "unit": "µg/mL"},
      {"measurement": "MIC (μg/ml) at 24 hours, VRE 2", "setting": "VRE; VRE 2, 24 hours, duplicate lines per compound", "result": 8, "unit": "µg/mL"},
      {"measurement": "VRE", "setting": "VRE; bioassay ranking, VRE", "result": 8, "unit": "µg/mL"},
      {"measurement": "activity against MRSA among analogues", "setting": "MRSA [5]; MIC testing, two MRSA strains", "result": "greatest activity"},
      {"measurement": "MIC (μg/ml) at 24 hours, MRSA 1", "setting": "MRSA [5]; MRSA 1, 24 hours, duplicate lines per compound", "result": 8, "unit": "µg/mL"},
      {"measurement": "MIC (μg/ml) at 24 hours, MRSA 2", "setting": "MRSA [5]; MRSA 2, 24 hours, duplicate lines per compound", "result": 4, "unit": "µg/mL"},
      {"measurement": "MRSA", "setting": "MRSA [5]; bioassay ranking, MRSA", "result": 6, "unit": "µg/mL"},
      {"measurement": "release profile from Formulation B", "setting": "[6]", "result": "acceptable release profile"},
      {"measurement": "MIC (μg/ml) at 24 hours, E. coli", "setting": "Escherichia coli", "result": ">128", "unit": "µg/mL"},
      {"measurement": "mean colony count per g of tissue, log10", "setting": "Staphylococcus aureus; mice, Formulation B 20 mg/g topically every 12 hours, vehicle 6.77", "result": 3.12, "unit": "log10"},
      {"measurement": "mean colony count per g of tissue", "setting": "Staphylococcus aureus; mice, Formulation B 20 mg/g topically every 12 hours, vehicle 5,888,436", "result": "1,318"},
      {"measurement": "% reduction (of colony forming units per gram of tissue versus vehicle)", "setting": "Staphylococcus aureus; mouse skin wound infected with Staphylococcus aureus, topical ointment (Formulation B, 20 mg/g) every 12 hours, end of 7 day period, relative to vehicle group", "result": 99.98, "unit": "%"},
      {"measurement": "Log10 (CFU/g): colony forming units per gram of tissue", "setting": "Staphylococcus aureus; mouse skin wound infected with Staphylococcus aureus, topical ointment (Formulation B, 20 mg/g) every 12 hours, wound tissue at end of 7 day period, group mean", "result": "3.12 Log10 (CFU/g)"},
      {"measurement": "MIC (μg/ml) at 24 hours, P. aeruginosa", "setting": "Pseudomonas aeruginosa", "result": ">128", "unit": "µg/mL"}
    ]},
    {"smiles": "CN[C@H](CC(C)C)C(=O)N[C@H]1C(=O)N[C@@H](CC(N)=O)C(=O)N[C@H]2C(=O)N[C@H]3C(=O)N[C@H](C(=O)N[C@H](C(=O)O)c4cc(O)cc(O)c4-c4cc3ccc4O)[C@H](O[C@H]3C[C@](C)(N)[C@@H](O)[C@H](C)O3)c3ccc(c(Cl)c3)Oc3cc2cc(c3O[C@@H]2O[C@H](CO)[C@@H](O)[C@H](O)[C@H]2O[C@H]2C[C@](C)(NCc3ccc(-c4ccc(Cl)cc4)cc3)[C@@H](O)[C@H](C)O2)Oc2ccc(cc2Cl)[C@H]1O", "note": "[oritavancin]", "values": [
      {"measurement": "reduction in viable count", "setting": "MRSA [7]", "result": 3, "unit": "log10"}
    ]}
  ]
}
